Laboratory results reported in US10829478B2, “5-[3-[piperazin-1-yl]-3-oxo-propyl]-imidazolidine-2,4-dione derivatives as ADAMTS 4 and 5 inhibitors for treating e.g. osteoarthritis” (Galapagos NV, priority 2016, dated 2020).
Where two headings read alike, the source gives them in different places.

Key:
human TACE = human TACE (Homo sapiens (Human), UniProt P78536); assay: biochemical
Experimental: Finally, the fluorescence is read on the Envision (Perkin Elmer) after an incubation of 75 min at room temperature (Excitation 485 nm, Emission 530).

human ADAMTS-5 = human ADAMTS-5 (Homo sapiens (Human), UniProt Q9UNA0); assay: hADAMTS-5 TBIS-1 cleavage assay, Protocol 3; assay type: biochemical; settings: 90 min at 37° C., read-out: hADAMTS-5 potency IC50
Experimental: The reaction is initiated by adding to the assay plate TBIS-1 (10 μL, 4.5 μM, Anaspec) in the same buffer.
Finally, the fluorescence is read on the Envision (Perkin Elmer) after an incubation of 90 min at 37° C. (Excitation 485 nm, emission 530).

rnADAMTS-5 (1-564-6H) = rnADAMTS-5 (1-564-6H) (Rattus norvegicus (Rat), UniProt Q6TY19); assay: Rat ADAMTS-5 TBIS-1 cleavage assay; assay type: biochemical; settings: 120 min at 37° C.; read-out: Rat ADAMTS-5 potency IC50
human ADAMTS4 = human ADAMTS4 (Homo sapiens (Human), UniProt O75173); assay: hADAMTS-4 TBIS-1 cleavage assay, Protocol 2; assay type: biochemical
human MMP13 [1] = molecular target: T1, human MMP13 (Homo sapiens (Human), UniProt P45452); assay: hMMP13 assay, Protocol 1 (390 MMP FRET Substrate I, Chemicon enzyme); assay type: biochemical; settings: Protocol 1, human MMP13 (Chemicon), read-out: hMMP-13 potency IC50
Experimental: (§1) Human MMP13 is preactivated by incubated the enzyme in the same buffer complemented with 1 mM freshly prepared p-Aminophenylmercuric acetate (AMPA) for 1 h at 37° C.

human ADAMTS6 = human ADAMTS6 (Homo sapiens (Human), UniProt Q9UKP5); assay: hADAMTS-6 fluorescent based protease assay (520 MMP FRET substrate XII); assay type: biochemical; settings: 37° C. for 2 h; read-out: hADAMTS-6 potency IC50
Method in brief: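 ADAMTS6 (0.73 nM final) in 25 mM Tris pH 8.0, 0.05% CHAPS, 2.5 mM CaCl2 with compound dilution series (top 20 μM, 1/5 steps). Reaction started with 520 MMP FRET Substrate XII, incubated 2 h at 37 °C. Substrate cleavage read by fluorescence ex485/em530; IC50 determined.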

human MMP14 = human MMP14 (Homo sapiens (Human), UniProt P50281); assay: hMMP14 assay (390 MMP FRET Substrate I); assay type: biochemical; settings: human MMP14 (Biomol), read-out: hMMP-14 potency IC50
Experimental: The basis for the assay is the cleavage of the substrate 390 MMP FRET Substrate I (Anaspec Cat #AS-27076) by human MMP14 (Biomol, Cat #SE-259).
The reaction is initiated by adding to the assay plate 390 MMP FRET Substrate I (10 μL, 2.5 μM) in the same buffer.
Finally, the fluorescence is read on the Envision (Perkin Elmer) after an incubation of 60 min at room temperature (Excitation 485 nm, Emission 530).

human MMP13 [2] = molecular target: T1, human MMP13; assay: hMMP13 assay, Protocol 2 (390 MMP FRET Substrate I, Enzo enzyme); assay type: biochemical; settings: Protocol 2, human MMP13 (Enzo Life Sciences), read-out: hMMP-13 potency IC50
Experimental: as §1

[3] = Protocol 2, 180 min at 37° C., read-out: ADAMTS4 potency IC50

Sequence of human TACE (P78536 215-671): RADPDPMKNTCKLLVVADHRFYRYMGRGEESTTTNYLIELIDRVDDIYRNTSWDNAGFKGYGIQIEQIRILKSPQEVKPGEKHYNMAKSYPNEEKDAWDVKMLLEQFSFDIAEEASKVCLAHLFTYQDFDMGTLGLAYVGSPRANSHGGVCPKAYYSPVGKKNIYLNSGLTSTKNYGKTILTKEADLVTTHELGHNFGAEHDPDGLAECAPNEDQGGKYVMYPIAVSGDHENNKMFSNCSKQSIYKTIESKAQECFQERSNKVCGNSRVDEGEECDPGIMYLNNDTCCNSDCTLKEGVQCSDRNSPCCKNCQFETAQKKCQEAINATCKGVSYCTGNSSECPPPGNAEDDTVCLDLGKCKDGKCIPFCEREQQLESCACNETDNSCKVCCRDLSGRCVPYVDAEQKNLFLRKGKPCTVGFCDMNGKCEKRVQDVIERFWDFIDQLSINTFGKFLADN
Sequence of human ADAMTS4 (O75173 213-837): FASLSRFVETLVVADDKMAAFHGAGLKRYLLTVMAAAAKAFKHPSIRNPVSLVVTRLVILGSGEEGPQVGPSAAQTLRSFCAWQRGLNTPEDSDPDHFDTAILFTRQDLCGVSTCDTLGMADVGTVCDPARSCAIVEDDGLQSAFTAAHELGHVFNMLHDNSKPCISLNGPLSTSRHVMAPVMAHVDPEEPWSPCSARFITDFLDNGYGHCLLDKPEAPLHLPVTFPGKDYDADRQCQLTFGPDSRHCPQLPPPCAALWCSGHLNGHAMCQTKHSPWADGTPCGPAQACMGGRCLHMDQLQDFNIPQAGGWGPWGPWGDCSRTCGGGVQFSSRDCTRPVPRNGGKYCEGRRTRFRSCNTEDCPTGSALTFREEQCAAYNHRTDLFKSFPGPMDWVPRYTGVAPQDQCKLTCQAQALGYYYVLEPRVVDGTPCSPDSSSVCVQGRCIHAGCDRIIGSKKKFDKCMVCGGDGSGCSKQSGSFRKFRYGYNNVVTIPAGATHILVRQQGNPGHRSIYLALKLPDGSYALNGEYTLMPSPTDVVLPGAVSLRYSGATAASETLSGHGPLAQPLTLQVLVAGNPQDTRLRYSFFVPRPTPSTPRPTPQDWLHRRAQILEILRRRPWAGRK
Sequence of human ADAMTS6 (Q9UKP5 other isoform, or with tags, fused parts or gaps): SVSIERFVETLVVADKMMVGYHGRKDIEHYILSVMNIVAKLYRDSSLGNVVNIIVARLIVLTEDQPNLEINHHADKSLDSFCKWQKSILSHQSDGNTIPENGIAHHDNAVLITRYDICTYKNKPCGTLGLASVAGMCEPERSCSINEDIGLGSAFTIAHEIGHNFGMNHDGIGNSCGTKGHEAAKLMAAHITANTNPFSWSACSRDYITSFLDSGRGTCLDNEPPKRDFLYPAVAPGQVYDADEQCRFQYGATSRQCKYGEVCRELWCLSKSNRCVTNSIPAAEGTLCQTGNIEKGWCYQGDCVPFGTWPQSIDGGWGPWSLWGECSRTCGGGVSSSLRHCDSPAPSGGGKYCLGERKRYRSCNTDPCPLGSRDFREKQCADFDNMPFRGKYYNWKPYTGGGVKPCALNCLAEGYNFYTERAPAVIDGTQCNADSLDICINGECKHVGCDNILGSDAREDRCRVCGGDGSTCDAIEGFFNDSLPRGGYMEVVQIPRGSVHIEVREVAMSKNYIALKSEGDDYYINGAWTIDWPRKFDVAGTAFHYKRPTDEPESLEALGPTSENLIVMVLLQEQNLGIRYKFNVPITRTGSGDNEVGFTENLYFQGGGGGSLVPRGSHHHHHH
Sequence of human ADAMTS-5 (Q9UNA0 262-930): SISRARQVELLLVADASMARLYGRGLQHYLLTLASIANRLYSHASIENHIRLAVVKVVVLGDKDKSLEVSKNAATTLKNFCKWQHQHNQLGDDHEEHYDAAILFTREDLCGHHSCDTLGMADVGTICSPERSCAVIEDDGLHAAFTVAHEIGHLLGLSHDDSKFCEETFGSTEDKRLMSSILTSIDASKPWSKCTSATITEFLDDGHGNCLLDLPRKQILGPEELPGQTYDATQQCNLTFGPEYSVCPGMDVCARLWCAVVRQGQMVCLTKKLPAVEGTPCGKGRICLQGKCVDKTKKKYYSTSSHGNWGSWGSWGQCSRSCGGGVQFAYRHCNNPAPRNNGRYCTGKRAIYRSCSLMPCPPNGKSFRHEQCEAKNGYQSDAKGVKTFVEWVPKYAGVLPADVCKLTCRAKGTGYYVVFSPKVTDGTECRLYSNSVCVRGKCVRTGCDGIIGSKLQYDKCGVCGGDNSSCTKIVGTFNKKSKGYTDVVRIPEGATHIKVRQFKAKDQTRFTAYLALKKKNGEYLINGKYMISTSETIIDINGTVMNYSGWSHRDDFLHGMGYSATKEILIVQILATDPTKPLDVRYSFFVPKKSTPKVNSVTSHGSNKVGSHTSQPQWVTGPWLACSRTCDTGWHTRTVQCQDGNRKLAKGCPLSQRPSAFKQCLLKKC
Sequence of rnADAMTS-5 (1-564-6H) (Q6TY19 entry or part of it): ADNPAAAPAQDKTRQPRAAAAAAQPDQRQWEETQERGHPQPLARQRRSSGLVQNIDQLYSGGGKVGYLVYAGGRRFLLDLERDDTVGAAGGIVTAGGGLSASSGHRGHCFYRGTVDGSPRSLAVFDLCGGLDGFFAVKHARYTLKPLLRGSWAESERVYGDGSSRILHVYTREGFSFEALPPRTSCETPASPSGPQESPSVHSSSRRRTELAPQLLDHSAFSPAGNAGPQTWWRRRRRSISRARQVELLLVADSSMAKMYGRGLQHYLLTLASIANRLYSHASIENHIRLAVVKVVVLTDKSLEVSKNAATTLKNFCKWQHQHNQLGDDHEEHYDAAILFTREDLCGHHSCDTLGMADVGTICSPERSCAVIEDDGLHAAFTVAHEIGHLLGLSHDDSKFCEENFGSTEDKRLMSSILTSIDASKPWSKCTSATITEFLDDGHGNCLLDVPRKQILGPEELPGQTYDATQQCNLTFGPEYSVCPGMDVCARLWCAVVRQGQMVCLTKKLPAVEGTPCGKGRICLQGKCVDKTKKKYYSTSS

IC50 (human TACE) [nM] | IC50 (human ADAMTS-5) [nM] | IC50 (rnADAMTS-5 (1-564-6H)) [nM] | IC50 (human ADAMTS4; [3]) [nM] | IC50 (human MMP13 [1]) [nM] | IC50 (human ADAMTS6) [nM] | IC50 (human MMP14) [nM] | IC50 (human MMP13 [2]) [nM] | SMILES | IC50 (human ADAMTS4) [nM]
> 100 | > 100 | > 100 | > 100 | > 100 | 0.001 to 25 |  |  | COc1cc(N2CCN(C(=O)CCC3(C)NC(=O)NC3=O)C[C@@H]2C)cc(OC)c1Cl (stereo partly drawn) [Cpd 30, 5-[3-[(3 S)-4-(4-chloro-3,5-dimethoxy-phenyl)-3-methyl-piperazin-1-yl]-3-oxo-propyl]-5-methyl-imidazolidine-2,4-dione] | 
> 100 | > 100 | > 100 | > 100 | > 100 | 0.001 to 25 |  |  | COc1cc(N2CCN(C(=O)CC[C@H]3NC(=O)NC3=O)CC2)cc(OC)c1Cl [Cpd 135, (5R)-5-[3-[4-(4-chloro-3,5-dimethoxy-phenyl)piperazin-1-yl]-3-oxo-propyl]imidazolidine-2,4-dione] | 
> 100 | 50 to 100 | 50 to 100 | > 100 | > 100 | 0.001 to 25 |  |  | COc1cc(N2CCN(C(=O)CCC3(C)NC(=O)NC3=O)C[C@@H]2C)cc(F)c1Cl (stereo partly drawn) [Cpd 39, 5-[3-[(3S)-4-(4-chloro-3-fluoro-5-methoxy-phenyl)-3-methyl-piperazin-1-yl]-3-oxo-propyl]-5-methyl-imidazolidine-2,4-dione] | 
> 100 | > 100 | > 100 | > 100 | > 100 | 25 to 50 |  |  | COc1cc(N2CCN(C(=O)CCC3(C)NC(=O)NC3=O)C[C@@H]2C)c(C)cc1Cl (stereo partly drawn) [Cpd 36, 5-[3-[(3 S)-4-(4-chloro-5-methoxy-2-methyl-phenyl)-3-methyl-piperazin-1-yl]-3-oxo-propyl]-5-methyl-imidazolidine-2,4-dione] | 
> 100 | > 100 | 50 to 100 | > 100 | > 100 | 0.001 to 25 |  |  | COc1cc(N2CCN(C(=O)CC[C@H]3NC(=O)NC3=O)C[C@@H]2C)cc(OC)c1Cl [Cpd 139, (5R)-5-[3-[(3 S)-4-(4-chloro-3,5-dimethoxy-phenyl)-3-methyl-piperazin-1-yl]-3-oxo-propyl]imidazolidine-2,4-dione] | 
 | > 100 | > 100 |  |  | > 100 |  |  | COc1cc(F)cc(N2CCN(C(=O)[C@H](C)C[C@@]3(C)NC(=O)NC3=O)CC2)c1 (stereo in doubt) [Cpd 131, 5-[3-[4-(3-fluoro-5-methoxy-phenyl)piperazin-1-yl]-2-methyl-3-oxo-propyl]-5-methyl-imidazolidine-2,4-dione] | 
> 100 | 50 to 100 |  | > 100 |  | 0.001 to 25 | > 100 | > 100 | CCc1cc(N2CCN(C(=O)[C@@H](C)C[C@@]3(COC)NC(=O)NC3=O)C[C@@H]2C)cc(OC)c1Cl (mixture of isomers) [Cpd 117, 5-[3-[(3S)-4-(4-chloro-3-ethyl-5-methoxy-phenyl)-3-methyl-piperazin-1-yl]-2-methyl-3-oxo-propyl]-5-(methoxymethyl)imidazolidine-2,4-dione] | 
> 100 | 25 to 50 |  | > 100 |  | 0.001 to 25 | > 100 | > 100 | COc1cc(N2CCN(C(=O)CC[C@@]3(C)NC(=O)NC3=O)C[C@@H]2C)cc(Cl)c1F [Cpd 63, (5R)-5-[3-[(3 S)-4-(3-chloro-4-fluoro-5-methoxy-phenyl)-3-methyl-piperazin-1-yl]-3-oxo-propyl]-5-methyl-imidazolidine-2,4-dione] | 
> 100 | > 100 |  | > 100 |  | 0.001 to 25 | > 100 | > 100 | COc1cc(N2CCN(C(=O)CC[C@@]3(C)NC(=O)NC3=O)CC2C(F)(F)F)ccc1Cl (stereo partly drawn) [Cpd 118, (5R)-5-[3-[4-(4-chloro-3-methoxy-phenyl)-3-(trifluoromethyl)piperazin-1-yl]-3-oxo-propyl]-5-methyl-imidazolidine-2,4-dione] | 

More lines, now with the values behind:

SMILES | IC50 (human TACE) [nM] | IC50 (human ADAMTS-5) [nM] | IC50 (rnADAMTS-5 (1-564-6H)) [nM] | IC50 (human ADAMTS4; [3]) [nM] | IC50 (human MMP13 [1]) [nM] | IC50 (human ADAMTS6) [nM] | IC50 (human MMP14) [nM] | IC50 (human MMP13 [2]) [nM] | IC50 (human ADAMTS4) [nM]
COc1cc(N2CCN(C(=O)CC[C@H]3NC(=O)NC3=O)CC2)c(C)cc1Cl [Cpd 138, (5R)-5-[3-[4-(4-chloro-5-methoxy-2-methyl-phenyl)piperazin-1-yl]-3-oxo-propyl]imidazolidine-2,4-dione] | > 100 | > 100 | > 100 | > 100 | > 100 | > 100 |  |  | 
COc1cc(N2CCN(C(=O)[C@@H](C)C[C@@]3(C4CC4)NC(=O)NC3=O)C[C@@H]2C)cc(F)c1F [Cpd 29, 5-cyclopropyl-5-[(2S)-3-[(3S)-4-(3,4-difluoro-5-methoxy-phenyl)-3-methyl-piperazin-1-yl]-2-methyl-3-oxo-propyl]imidazolidine-2,4-dione] | > 100 | 25 to 50 | 25 to 50 |  | > 100 | 0.001 to 25 |  |  | 25 to 50
COc1cc(OC)cc(N2CCN(C(=O)CCC3(C)NC(=O)NC3=O)C[C@@H]2C)c1 (stereo partly drawn) [Cpd 25, 5-[3-[(3 S)-4-(3,5-dimethoxyphenyl)-3-methyl-piperazin-1-yl]-3-oxo-propyl]-5-methyl-imidazolidine-2,4-dione] | > 100 | > 100 | > 100 | > 100 | > 100 | 25 to 50 |  |  | 
COc1cc(N2CCN(C(=O)CCC3(C4CC4)NC(=O)NC3=O)C[C@@H]2C)cc(F)c1F (stereo partly drawn) [Cpd 21, 5-cyclopropyl-5-[3-[(3S)-4-(3,4-difluoro-5-methoxy-phenyl)-3-methyl-piperazin-1-yl]-3-oxo-propyl]imidazolidine-2,4-dione] | > 100 | 0.001 to 25 | 0.001 to 25 |  | > 100 | 0.001 to 25 |  |  | 50 to 100
COc1cc(F)cc(N2CCN(C(=O)[C@@H](C)C[C@@]3(C)NC(=O)NC3=O)CC2)c1 [Cpd 27, (5R)-5-[(2S)-3-[4-(3-fluoro-5-methoxy-phenyl)piperazin-1-yl]-2-methyl-3-oxo-propyl]-5-methyl-imidazolidine-2,4-dione] | > 100 | 25 to 50 | 25 to 50 |  | > 100 | 0.001 to 25 |  |  | 25 to 50
COc1cc(N2CCN(C(=O)CCC3(c4cccnc4)NC(=O)NC3=O)CC2)cc(F)c1F (stereo not drawn) [Cpd 28, 5-[3-[4-(3,4-difluoro-5-methoxy-phenyl)piperazin-1-yl]-3-oxo-propyl]-5-(3-pyridyl)imidazolidine-2,4-dione] | > 100 | > 100 | 50 to 100 | > 100 | > 100 | 25 to 50 |  |  | 
COc1cc(F)cc(N2CCN(C(=O)[C@H](C)C[C@@]3(C4CC4)NC(=O)NC3=O)CC2)c1 (stereo in doubt) [Cpd 130, 5-cyclopropyl-5-[3-[4-(3-fluoro-5-methoxy-phenyl)piperazin-1-yl]-2-methyl-3-oxo-propyl]imidazolidine-2,4-dione] |  | > 100 | > 100 |  |  | > 100 |  |  | 
COc1cc(N2CCN(C(=O)CC[C@]3(C)NC(=O)NC3=O)C[C@@H]2C)ccc1Cl [Cpd 146, (5 S)-5-[3-[(3 S)-4-(4-chloro-3-methoxy-phenyl)-3-methyl-piperazin-1-yl]-3-oxo-propyl]-5-methyl-imidazolidine-2,4-dione] | > 100 | > 100 |  | > 100 |  | > 100 | > 100 | > 100 | 
CCc1cc(N2CCN(C(=O)CC[C@@]3(C)NC(=O)NC3=O)CC2)ccc1Cl [Cpd 71, (5R)-5-[3-[4-(4-chloro-3-ethyl-phenyl)piperazin-1-yl]-3-oxo-propyl]-5-methyl-imidazolidine-2,4-dione] | > 100 | > 100 |  | > 100 |  | 25 to 50 | > 100 | > 100 | 
COc1cc(N2CCN(C(=O)[C@@H](C)C[C@H]3NC(=O)NC3=O)CC2)cc(F)c1F (stereo in doubt) [Cpd 51, 5-[3-[4-(3,4-difluoro-5-methoxy-phenyl)piperazin-1-yl]-2-methyl-3-oxo-propyl]imidazolidine-2,4-dione] | > 100 | > 100 |  | > 100 |  | 0.001 to 25 | > 100 | > 100 | 
COC[C@]1(C[C@H](C)C(=O)N2CCN(c3cc(F)c(Cl)c(OC)c3)CC2)NC(=O)NC1=O [Cpd 123, (5 S)-5-[(2S)-3-[4-(4-chloro-3-fluoro-5-methoxy-phenyl)piperazin-1-yl]-2-methyl-3-oxo-propyl]-5-(methoxymethyl)imidazolidine-2,4-dione] | > 100 | 0.001 to 25 |  |  |  | 0.001 to 25 | > 100 | > 100 | 50 to 100
